Test results taken from patent publication US9363996B2, “Compositions and method for blocking ethylene response in field crops using 3-(cy-clopropyl-l-enyl)-propanoic salt” (Yissum Research Development Company of the Hebrew …, priority 2009, dated 2016).

Assays:
tobacco seedlings = experiment: Ethylene-induced leaf yellowing (senescence) of young tobacco seedlings; type: in vivo, tobacco (Nicotiana tabacum var. 'Samsun'); settings: for ethylene-induced senescence (leaf yellowing): ethylene 10 μL L^−1
Method: (1) Abscission—This is a very sensitive model system for studying the effects of plant hormones. Ethylene induces the process of abscission, while auxin delays it. In the laboratory the experimental system is based on plant organ explants, which include the abscission zone. Abscission is induced by exposure to ethylene and at the termination of the experiment the number of abscised organs, usually either leaf blades or petioles are counted and the fraction of abscission is calculated. In the case of fruit, the decrease in fruit retention force is analyzed. In cotton, when WS-CPD (the ethylene-action antagonist herein disclosed) is tested, the whole plants or explants are pretreated by spraying with the antagonist, dissolved in a phosphate buffer solution (10-20 mM, pH 7.0) including 0.1% commercially available Kinetic™ as surfactant, and left to incubate for a predetermined time, usually between 6 and 24 h. The plants or explants are then further exposed for 24 h to ethylene gas (5 to 20 μL L^−1). The plants or explants are then ventilated and incubated for the required time under controlled conditions. At the end of the experiment the percentage of abscission is determined. (2) Chlorophyll degradation—This is a standard model for studying senescence. Plant material (whole plants, excised leaves or leaf discs) are pretreated. In cotton, tobacco and wheat, when WS-CPD is tested, the whole plants or explants are pretreated by spraying with the antagonist, dissolved in phosphate buffer solution (10-20 mM, pH 7.0) including 0.1% commercially available Kinetic™ surfactant, and left to incubate for a predetermined time, usually between 6 and 241. […] At the end of the experiment a dimethylsulfoxide (DMSO) extract of the plant tissue is prepared, and the chlorophyll content of the extract is determined by spectrophotometric analysis. […] The extent of ethylene-induced epinasty of leaves is determined by measuring the change of the angle between the petiole and the stem shoot or blade. […]

young cotton seedlings = experiment: Ethylene-induced chlorophyll degradation in young cotton seedlings; type: in vivo, cotton (Gossyium hirsutum barbadense L.); settings: for increase of chlorophyll content compared with the untreated control: ethylene 10 μL L^−1
Method: (1) Abscission-This is a very sensitive model system for studying the effects of plant hormones. Ethylene induces the process of abscission, while auxin delays it. In the laboratory the experimental system is based on plant organ explants, which include the abscission zone. Abscission is induced by exposure to ethylene and at the termination of the experiment the number of abscised organs, usually either leaf blades or petioles are counted and the fraction of abscission is calculated. In the case of fruit, the decrease in fruit retention force is analyzed. […] The plants or explants are then further exposed for 24 h to ethylene gas (5 to 20 μL L^-1). The plants or explants are then ventilated and incubated for the required time under controlled conditions. At the end of the experiment the percentage of abscission is determined. […] Plant material (whole plants, excised leaves or leaf discs) are pretreated. […] The plants or explants are then ventilated and incubated for the required time under controlled conditions. At the end of the experiment a dimethylsulfoxide (DMSO) extract of the plant tissue is prepared, and the chlorophyll content of the extract is determined by spectrophotometric analysis. The chlorophyll content is reported either on a fresh, dry weight basis, or on a surface area basis. (3) Epinasty-This is also one of the classical methods for studying ethylene effects in plants. The extent of ethylene-induced epinasty of leaves is determined by measuring the change of the angle between the petiole and the stem shoot or blade. After exposure of the intact plant to ethylene, the upright grown leaves bend downward. […] The plants are then ventilated and incubated for the required time under controlled conditions. The epinastic effect is expressed by measuring the degree values of the downward curvature between the blade and petiole (cotton, FIGS. 1-3) or between the blade and the stem (wheat, FIGS. 31 and 32). […] In this project the intact plants were grown in the greenhouse up to the spike […] stage I and II. […] Young Cotton Seedlings […] The content of chlorophyll in the leaf blades of the treated plants remained the same as in the untreated control (FIGS. 5 and 6).

O=C([O-])CCC1=CC1.[Na+] [WS-CPD, 3-cyclopropyl-1-enyl-propanoic sodium salt]
ethylene-induced senescence (leaf yellowing) (tobacco seedlings; WS-CPD 14 μg mL^−1): antagonized the ethylene-induced senescence only in mature leaves
ethylene-induced senescence (leaf yellowing) (tobacco seedlings; WS-CPD 127 μg mL^−1, young leaves): slightly effective
leaf yellowing (tobacco seedlings; WS-CPD 14 to 127 μg mL^−1, ethylene 20 μL L^−1): very significantly inhibited
ethylene-induced chlorophyll degradation (young cotton seedlings; WS-CPD 10 μg mL^−1 pretreatment, ethylene 10 μL L^−1 24 h): completely antagonized
increase of chlorophyll content compared with the untreated control (young cotton seedlings; WS-CPD 30 μg L^−1 (so in the source)): 20%
increase of chlorophyll content compared with the untreated control (young cotton seedlings; WS-CPD 100 μg L^−1 (so in the source)): 28%
ethylene-induced chlorophyll degradation (young cotton seedlings; higher concentrations of WS-CPD (up to 300 μg mL^−1)): less effective
